Measured values: patent publication US20100035904A1, “PHE[…]; METHODS OF MAKING; AND METHODS OF USE THEREOF” (priority 2008, published 2010)
Structures can show the parent of a compound that is named as a salt.

Legend:
[1] = Moisture sorption experiments; assay type: physicochemical; settings: for hygroscopicity (moisture sorption analysis): 0-90% RH; for XRPD pattern of material following the moisture sorption experiment: after sorption/desorption and drying
Method: Moisture sorption experiments are carried out on about 10 milligrams (mg) of sample in a Pyrex bulb by first equilibrating the sample at 25° C./40% relative humidity (RH) until an equilibrium weight is reached. The sample is then subjected to an isothermal (25° C.) adsorption scan from 40 to 90% RH in steps of 10% RH. The sample is allowed to equilibrate to either an asymptotic weight or a maximum of four hours for each relative humidity. A desorption scan from 90 to 0% RH (at 25° C.) is then run in steps of −10% again allowing a maximum of four hours for equilibration or an asymptotic weight. Following desorption, an adsorption scan is performed from 0% RH to the initial 40% RH. The sample is then dried for one hour at 80° C. to obtain the dry weight.

[2] = Stability of the salt in seven day toluene slurry (XRPD); assay type: physicochemical; settings: ambient temperature, seven days
Method: Stability of the salt is evaluated using a seven day toluene slurry. Each salt (about 10-20 mg) is slurried in 250 microliters of toluene at ambient temperature for seven days in a 4 ml vial. After seven days, each sample is filtered and dried overnight at ambient temperature under vacuum. The samples are then analyzed by XRPD.

[3] = Analysis of residual solids from water slurry (XRPD, 1H-NMR) for form conversion; assay type: physicochemical; settings: water slurry overnight, ambient temperature
[4] = background statement; cited from earlier work

Compound	hygroscopicity (moisture sorption analysis) ([1]; 25° C.)	water adsorbed between 10-60% RH ([1]; 25° C., 10-60% RH)	water adsorbed at 90% RH ([1]; 25° C.)	XRPD pattern of material following the moisture sorption experiment [1]	water content at which the desorption curve stabilizes ([1]; desorption, 40-5% RH)	XRPD of material following seven day toluene slurry [2]	stability of the salt in water slurry (conclusion) [3]	hygroscopicity / stability in humid environments [4]
CCC1(c2ccccc2)C(=O)NC(=O)NC1=O [phenobarbital sodium salt, phenobarbital sodium]	hygroscopic	approximately 2 wt %	approximately 34 wt %	shows differences in comparison to the diffraction pattern of the initial material	approximately 12 wt %	amorphous		
phenobarbital benzathine	nonhygroscopic		1.0 wt %	consistent with the initial material			remained stable	
phenobarbital betaine [phenobarbital betaine salt]	hygroscopic		28.1 wt %	consistent with the initial material		consistent with the initial material	salt dissociation	
CCC1(c2ccccc2)C(=O)[N-]C(=O)NC1=O.C[N+](C)(C)CCO [phenobarbital choline salt, phenobarbital choline]	hygroscopic		23 wt %	consistent with the initial material		consistent with the initial material	remained stable	
CCC1(c2ccccc2)C(=O)NC(=O)NC1=O [Phenobarbital sodium]								hygroscopic and degrades when exposed to humid environments
CCC1(c2ccccc2)C(=O)NC(=O)NC1=O [phenobarbital potassium salt, phenobarbital potassium]							potential dissociation	
CCC1(c2ccccc2)C(=O)NC(=O)NC1=O [Phenobarbital free form, 5-ethyl-5-phenyl-2,4,6(1H,3H,5H)-pyrimidinetrione, reference compound]	nonhygroscopic		0.1 wt %	consistent with the initial phenobarbital starting material				
